Measured values taken from patent publication US4925943A, “2-(2-aminobenzyl or 2-nitrobenzyl)-1,2,3,4-tetrahydroisoquinoline derivatives” (priority 1986, dated 1990).
Like-named read-outs stand apart in the source and are kept apart here. Values belong to the compound of their own block, whether it stands above or below them.

Assays:
[1] = target: α1 adrenergic receptors of rat cerebral cortex; experiment: [3H] prazosine binding, rat cerebral cortex (α1); parameters: species or system rat (male Wistar); conditions: for Ki: read-out: Prazosine [^3 H] Ki nM, rat cerebral cortex, 0.2 nM [3H] prazosine, 25° C., 30 minutes, at least three experiments ± standard deviation
Procedure: (§1) The preparation of the cerebral cortex homogenates is made starting from male Wistar rats, age 12 weeks. After decapitation, the brains are rapidly removed and dissected. The tissues are homogenized with the aid of an ultra-turrax in 50 mM of a pH 7.5 Tris-HCl buffer and centrifuged at 40,000 g for ten minutes. The centrifugate is dissolved in buffer and recentrifuged in the same way. All of the operations are carried out at a temperature less than 4° C. The final centrifugate is homogenized in the incubation buffer maintained in melting ice (tris-HCl 50 mM pH 7.5) so as to obtain a final dilution of the cortical tissue of 1/100 (by volume), which corresponds to about 0.5 mg of protein per ml.
(§2) These filters are rinsed 4 times with 5 ml of incubation buffer preserved in ice. The radioactivity retained on the filters is counted by liquid scintillation. The non-specific fixation of the radioactive ligand is evaluated in the presence of 10 μM phentolamine.
(§3) Starting from the inhibition curves for the specific fixation of a ligand to its receptor by increasing quantities of a non-radioactive product, the inhibition constant (Ki) of this product is determined.

[2] = target: T1, α2 adrenergic receptors of rat cerebral cortex (Rattus norvegicus, UniProt P22909); experiment: [3H] yohimbine binding, rat cerebral cortex (α2); parameters: species or system rat (male Wistar)
T1 construct: The preparation of the cerebral cortex homogenates is made starting from male Wistar rats; from tissue; host or cells: cerebral cortex homogenate of male Wistar rats
T1 sequence (P22909 1-465): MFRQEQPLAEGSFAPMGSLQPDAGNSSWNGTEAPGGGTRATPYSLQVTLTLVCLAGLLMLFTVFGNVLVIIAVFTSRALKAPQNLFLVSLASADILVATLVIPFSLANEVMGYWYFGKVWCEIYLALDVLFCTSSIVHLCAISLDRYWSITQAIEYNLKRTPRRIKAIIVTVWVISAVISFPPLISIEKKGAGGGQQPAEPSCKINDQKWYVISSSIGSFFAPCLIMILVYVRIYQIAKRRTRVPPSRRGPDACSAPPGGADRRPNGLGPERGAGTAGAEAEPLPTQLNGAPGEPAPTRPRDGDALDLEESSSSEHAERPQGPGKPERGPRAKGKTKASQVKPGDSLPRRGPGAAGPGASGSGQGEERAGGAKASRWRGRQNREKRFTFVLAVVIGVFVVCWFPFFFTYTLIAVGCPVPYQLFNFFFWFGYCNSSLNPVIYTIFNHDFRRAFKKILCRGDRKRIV
Procedure: as §1, §2, §3

α1 receptors = conditions: statement in words, background; cited from earlier work
[3] = target: T2, α2 adrenergic receptors of isolated rat deferent canal (Rattus norvegicus, UniProt P22909); experiment: antagonism with clonidine on electrically stimulated rat deferent canal
T2 sequence (P22909 1-465): T1 sequence (P22909 1-465)
Procedure: Each organ is connected to an isometric sensor of tradename Statham, made by Gould Inc., Medical Product Division, under a base tension of 0.5 g. Contractions are recorded by a polygraph of tradename Beckman, made by Beckman. To characterize the α2 blocking effect, the deferent canal is electrically stimulated by rectangular impulses of 2 msec duration, 30 volts, with a frequency of 0.2 Hz delivered by a stimulator of tradename Bioscience (Stimulator 100), made by Palmer. After a rest period of 20-30 minutes, increasing concentrations of clonidine are added to the survival medium over 2 minutes. This permits establishing the relation between the effect and concentration of clonidine. After generating two successive, cumulative effect-concentration curves separated by a rest period of 20 minutes, the antagonist is placed in contact with the isolated organ for 10 minutes and a new effect-concentration relationship is determined. In preliminary experiments, it was established that the second and third effect-concentration relation with the agonist are identical in the absence of antagonist.
To characterize the α1 blocking effect, the organ is stimulated by phenylephrine. Stimulation of the rat deferent canal produces a rapid contractile response (maximum contraction is obtained in 30 seconds). After a rest period of 30 minutes, increasing concentrations of phenylephrine are added in the organ cell over 30 seconds. A first effect-concentration relationship is established. After a washing and a new rest period of 15 mins. wherein the organ returns to the initial tension, a second effect-concentration relationship is effected. The antagonist is placed in contact with the tissue returned to its base tension after washing and a third effect-concentration relationship is determined. In preliminary experiments, it was established that the second and third effect-concentration relationship of the agonist are identical in the absence of antagonist. […] The apparent dissociation constant (KD), calculated according to Furchgott, is the relation between the molar concentration of antagonist and the relation of equiactive doses of agonist (in the presence and absence of antagonist) -1.
The effect (inhibition of the contractile response) is expressed as a percentage of the maximum effect.

[4] = target: T3, α1 adrenergic receptors of isolated rat deferent canal (Rattus norvegicus, UniProt P43140); experiment: antagonism with phenylephrine induced contraction of rat deferent canal; parameters: species or system rat (male Wistar); conditions: for effect on effect-concentration curves of phenylephrine: FIG. 3; for slope of Schild relation, antagonism with phenylephrine: rat deferent canal
T3 construct: The deferent canals of 12-week old male Wistar rats are removed; from tissue; host or cells: isolated vas deferens (deferent canal) of male Wistar rats
T3 sequence (P43140 1-466): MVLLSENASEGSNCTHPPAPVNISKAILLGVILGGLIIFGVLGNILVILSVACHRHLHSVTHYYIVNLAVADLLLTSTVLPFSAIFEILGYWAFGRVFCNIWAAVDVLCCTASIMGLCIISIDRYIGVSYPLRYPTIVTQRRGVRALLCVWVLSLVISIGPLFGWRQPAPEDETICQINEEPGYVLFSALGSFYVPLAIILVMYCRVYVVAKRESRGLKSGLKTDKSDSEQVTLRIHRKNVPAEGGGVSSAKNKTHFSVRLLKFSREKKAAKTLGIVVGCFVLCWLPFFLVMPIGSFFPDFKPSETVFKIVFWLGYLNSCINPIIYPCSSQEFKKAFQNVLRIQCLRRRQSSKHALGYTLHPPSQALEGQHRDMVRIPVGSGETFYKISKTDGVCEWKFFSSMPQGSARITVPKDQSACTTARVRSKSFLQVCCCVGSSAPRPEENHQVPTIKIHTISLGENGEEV
Procedure: The deferent canals of 12-week old male Wistar rats are removed.
Each organ is connected to an isometric sensor of tradename Statham, made by Gould Inc., Medical Product Division, under a base tension of 0.5 g. Contractions are recorded by a polygraph of tradename Beckman, made by Beckman. To characterize the α2 blocking effect, the deferent canal is electrically stimulated by rectangular impulses of 2 msec duration, 30 volts, with a frequency of 0.2 Hz delivered by a stimulator of tradename Bioscience (Stimulator 100), made by Palmer. After a rest period of 20-30 minutes, increasing concentrations of clonidine are added to the survival medium over 2 minutes. This permits establishing the relation between the effect and concentration of clonidine. After generating two successive, cumulative effect-concentration curves separated by a rest period of 20 minutes, the antagonist is placed in contact with the isolated organ for 10 minutes and a new effect-concentration relationship is determined.
To characterize the α1 blocking effect, the organ is stimulated by phenylephrine. […] After a rest period of 30 minutes, increasing concentrations of phenylephrine are added in the organ cell over 30 seconds. A first effect-concentration relationship is established. After a washing and a new rest period of 15 mins. wherein the organ returns to the initial tension, a second effect-concentration relationship is effected. The antagonist is placed in contact with the tissue returned to its base tension after washing and a third effect-concentration relationship is determined. […] The apparent dissociation constant (KD), calculated according to Furchgott, is the relation between the molar concentration of antagonist and the relation of equiactive doses of agonist (in the presence and absence of antagonist) -1.

H1 histaminic receptor = experiment: binding sites of [3H] pyrilamine
[5] = test system: binding sites of [^3 H] nitrendipine (calcium influx blocking agent); experiment: binding sites of [3H] nitrendipine
[6] = test system: α2 adrenergic receptors of rat aorta; experiment: antagonism of BHT 920 induced contraction of isolated rat aorta; parameters: species or system rat (female Wistar)
Procedure: The antagonism of ISK7 relative to the contracture-causing effect of BHT 920 (2-amino-6-allyl-5,6,7,8-tetrahydro[4,5-d]thiazolo-4H-azepinedihydrochloride) (α2 adrenergic agonist) on rat aorta is taken as an example. There is antagonism when a substance is capable of partially or totally opposing the effects of an agonistic substance.
Rapidly removed female Wistar rat aorta is received in a Krebs solution containing: NaCl 120 mM; KCl 4.8 mM; NaHCO3 25 mM; glucose 10 mM; CaCl2 1.25 mM; MgSO4 1.19 mM; KH2 PO4 1.14 mM. The aorta, freed of connective and adipose tissue, is cut in hoops of a length of about 1 mm. Each hoop is installed in a 10 ml organ cell containing Krebs liquid at 37°, oxygenated with an oxygen-carbon dioxide mixture (95% O2 and 5% CO2) and connected to an isometric sensor of tradename Statham and made by Gould Inc., Medical Product Division, under a base tension of 2 g. Recording of the contractions is effected with a polygraph of tradename Beckman and made by Beckman. After a rest period (1 h) interrupted by washings, a first effect-concentration relation is established by studying the contraction provoked by addition in the cell of increasing concentrations of BHT 920. After a new rest period interrupted by washings (30 min.) where the organ returns to the initial tension, the antagonist is placed in contact with the vessel for 10 minutes; the a new effect-concentration relation with BHT 920 is established. In preliminary experiments, it was established that the first and second effect-concentration relation of the agonist are identical in the absence of antagonist. […] The displacement increases with ISK concentration. […] The apparent dissociation constant of ISK7, calculated from experiments illustrated in FIG. 1 for a competitive antagonism according to Furchgott R. F. (in Catecholamines, ed. by Blaschko and Muscholl, Springer-Verlag, Berlin, 1972, pp. 283-335) is 1.2×10^-7 M for the two concentrations employed. […]

D2 dopaminergic receptor = experiment: binding sites of [3H] dexetimide
serotonergic receptor = experiment: binding sites of [3H] ketanserine

Ki [1]: > 30000 nM | Ki [2]: 1.4 ± 0.375 µM
SMILES: Nc1cc(Cl)ccc1CN1CCc2ccccc2C1 [ISK25, 2-(2-amino-4-chlorobenzyl)-1,2,3,4-tetrahydroisoquinoline]

SMILES: COC(=O)[C@@H]1[C@H]2C[C@H]3c4[nH]c5ccccc5c4CCN3C[C@@H]2CC[C@@H]1O [Yohimbine, reference compound]
Ki [1]: 350 ± 30 nM | affinity for α1 receptors (α1 receptors): only slight affinity | effect on effect-concentration curves of clonidine [3]: shift toward the right of the effect-concentration curves of agonist without diminution of the maximum effect | slope of Schild relation, antagonism with clonidine [3]: 1.15 | effect on effect-concentration curves of phenylephrine [4]: shifted toward the right without depression of the maximum | slope of Schild relation, antagonism with phenylephrine [4]: 0.85

Ki [1]: 2900 ± 400 nM | Ki [2]: 0.81 ± 0.11 µM
SMILES: COc1cc(N)c(CN2CCc3cc(OC)c(OC)cc3C2)cc1OC [ISK4, 2-(2-amino-4,5-dimethoxybenzyl)-6,7-dimethoxy-1,2,3,4-tetrahydroisoquinoline]

slope of Schild relation, antagonism with phenylephrine [4]: 0.99
SMILES: COc1cc2nc(N3CCN(C(=O)c4ccco4)CC3)nc(N)c2cc1OC [Prazosine, reference compound]
effect on effect-concentration curves of phenylephrine [4]: shifted toward the right without depression of the maximum

Ki [1]: 1800 ± 330 nM | Ki [2]: 0.155 ± 0.035 µM
SMILES: COc1ccc2c(c1)CCN(Cc1ccc(Cl)cc1N)C2 [ISK31, 2-(2-amino-4-chlorobenzyl)-6-methoxy-1,2,3,4-tetrahydroisoquinoline]

Kd ([1]; read-out: KD of Prazosine [^3 H], radioligand): 0.00014 µM
SMILES: COc1cc2nc(N3CCN(C(=O)c4ccco4)CC3)nc(N)c2cc1OC [Prazosine [^3 H], reference compound]

Ki [1]: 3400 ± 300 nM | Ki [2]: 1.7 ± 0.3 µM
SMILES: COc1cc2c(cc1OC)CN(Cc1ccccc1N)CC2 [ISK17, 2-(2-aminobenzyl)-6,7-dimethoxy-1,2,3,4-tetrahydroisoquinoline]

Ki [1]: > 30000 nM | Ki [2]: 2.74 ± 1.02 µM
SMILES: O=[N+]([O-])c1cc(Cl)ccc1CN1CCc2ccccc2C1 [ISK24, 2-(2-nitro-4-chlorobenzyl)-1,2,3,4-tetrahydroisoquinoline]

Ki [1]: 990 ± 50 nM | affinity for the binding sites of [^3 H] pyrilamine (H1 histaminic receptor): no affinity | affinity for the binding sites of [^3 H] nitrendipine [5]: no affinity | Kb [3]: 0.2 µM | antagonist selectivity on isolated rat deferent canal ([3]; clonidine (α2) versus phenylephrine (α1)): selective, α2 type adrenergic antagonist | slope of Schild relation, antagonism with clonidine ([3]; rat deferent canal, electric stimulation): 1.05 | slope of Schild relation, antagonism with phenylephrine [4]: very different than 1 | Kd ([4]; read-out: log of KD, antagonism with phenylephrine (pA2 cannot be calculated) (converted)): 2.88 µM | Ki [2]: 0.063 ± 0.02 µM | affinity for the binding sites of [^3 H] dexetimide (D2 dopaminergic receptor): no affinity | affinity for the binding sites of [^3 H] ketanserine (serotonergic receptor): no affinity
SMILES: COc1ccc2c(c1)CCN(Cc1cc(OC)c(OC)cc1N)C2 [ISK7, 2-(2-amino-4,5-dimethoxybenzyl)-6-methoxy-1,2,3,4-tetrahydroisoquinoline]
effect on effect-concentration curves of clonidine ([3]; FIG. 2, ISK7 100-3000 nM, prazosine 1000-10,000 nM, yohimbine 30-1000 nM): shift toward the right of the effect-concentration curves of agonist without diminution of the maximum effect | effect on effect-concentration curves of phenylephrine [4]: shifted toward the right without depression of the maximum | inhibition of the effect of phenylephrine relative to clonidine ([4]; α1 versus α2, rat deferent canal): only at concentrations very significantly higher than the concentrations at which it competitively inhibits the effect of α2 selective agonist, clonidine | Kd ([6]; according to Furchgott, competitive antagonism, two concentrations (10^-7 and 10^-6), read-out: apparent dissociation constant (antagonism of BHT 920, rat aorta)): 0.12 µM | pA2 on aorta ([6]; antagonism with BHT 920): 6.9 | effect on effect-concentration curve of BHT 920 ([6]; rat aorta, 10 minutes contact): shift to the right of the effect-concentration curve of the agonist, without depression of the maximum

Ki [1]: > 10000 nM | Ki [2]: 2.67 ± 0.4 µM
SMILES: CNc1cc(OC)c(OC)cc1CN1CCc2cc(OC)c(OC)cc2C1 [ISK23, 2-(2-methylamino-4,5-dimethoxybenzyl)-6,7-dimethoxy-1,2,3,4-tetrahydroisoquinoline]

Ki [1]: 3220 ± 70 nM | Ki [2]: 0.22 ± 0.075 µM
SMILES: COc1cc(N)c(CN2CCc3ccccc3C2)cc1OC [ISK18, 2-(2-amino-4,5-dimethoxybenzyl)-1,2,3,4-tetrahydroisoquinoline]
